According to patent US20210294217A1, “ACTINIC RAY-SENSITIVE OR RADIATION-SENSITIVE RESIN COMPOSITION, RESIST FILM, PATTERN FORMING METHOD, AND METHOD FOR MANUFACTURING ELECTRONIC DEVICE” (FUJIFILM Corporation, priority 2019, published 2021):

Assay: acid dissociation constant pKa determined by computation (ACD/Labs Software Package 1; Gaussian 16 DFT where not calculable)
Settings: acid generated from photoacid generator B
From the text: In the present specification, an acid dissociation constant (pKa) represents a pKa in an aqueous solution, and is specifically a value determined by computation from a value based on a Hammett's substituent constant and database of publicly known literature values, using the following software package 1. Any of the pKa values described in the present specification indicates values determined by computation using the software package.
Software Package 1: Advanced Chemistry Development (ACD/Labs) Software V 8.14 for Solaris (1994-2007 ACD/Labs).
As described above, the pKa in the present specification refers to a value determined by computation from a value based on a Hammett's substituent constant and database of publicly known literature values, using the software package 1, but in a case where the pKa cannot be calculated by the method, a value obtained by Gaussian 16 based on density functional theory (DFT) shall be adopted.
In addition, the pKa in the present specification refers to a “pKa in an aqueous solution” as described above, but in a case where the pKa in an aqueous solution cannot be calculated, a “pKa in a dimethyl sulfoxide (DMSO) solution” shall be adopted.
Furthermore, in the measurement of the acid dissociation constant pKa of an acid generated from the photoacid generator B, specifically, the pKa is a value determined by subjecting a compound formed by substituting each cationic moiety in the compounds B-1 to B-25 with H^+ (for example, in a case of the compound B-1, a compound formed by substituting the triphenylsulfonium cation with H^+) to computation from a value based on a Hammett's substituent constant and database of publicly known literature values, using Software Package 1 of ACD/Labs, as described above. In addition, in a case where pKa could not be calculated by the method, a value obtained by Gaussian 16 based on density functional theory (DFT) was adopted.
In the following table, “pKa1” represents an acid dissociation constant of the first stage, “pKa2” represents an acid dissociation constant of the second stage, and “pKa3” represents an acid dissociation constant of the third stage. A smaller value of pKa means a higher acidity. […]

SMILES	Difference between acid dissociation constant a1 and acid dissociation constant a2
O=C(O)C(F)(F)C(F)(F)C(F)(F)C(=O)OC12CC3CC(CC(COC(=O)C(F)(F)S(=O)(=O)O)(C3)C1)C2 [B-3]	2.92
O=C(COC(=O)C(F)(F)S(=O)(=O)O)NC(=O)C(F)(F)F [B-4]	9.23
CS(=O)(=O)NC(=O)C(F)(F)C(F)(F)C(F)(F)C(=O)OCC(F)S(=O)(=O)O (centres unmarked) [B-5]	2.55
O=C(OCCCS(=O)(=O)O)C(F)(F)S(=O)(=O)O [B-6]	4.82
CC1(C)C2CCC1(CS(=O)(=O)NC(=O)C(F)(F)C(F)(F)C(F)(F)F)C(OC(=O)C(F)S(=O)(=O)O)C2 (centres unmarked) [B-8]	2.20
O=C(O)N1CCN(S(=O)(=O)C(F)(F)C(F)(F)C(F)(F)S(=O)(=O)NS(=O)(=O)C(F)(F)F)CC1 [B-13]	15.11
O=C(O)CCCOC(=O)C(CS(=O)(=O)O)C(F)(F)F (centres unmarked) [B-14]	3.63
O=C(O)C1CCCCC1C(=O)OCC(F)C(F)(F)S(=O)(=O)O (centres unmarked) [B-17]	7.24
O=S(=O)(O)NCCOC1CCCC(C(F)(F)S(=O)(=O)O)C1 (centres unmarked) [B-18]	3.2
O=C(CC(F)(F)F)NS(=O)(=O)C(F)(F)C(F)(F)C(F)(F)S(=O)(=O)NS(=O)(=O)C(F)(F)F [B-22]	10.35
O=C(NS(=O)(=O)C(F)(F)C(F)(F)C(F)(F)S(=O)(=O)NS(=O)(=O)C(F)(F)F)c1cc(C(F)(F)F)cc(C(F)(F)F)c1 [B-24]	9.95
